16 molecules from patent publication US8772504B2, “Substituted benzoxazole, benzimidazole, oxazolopyridine and imidazopyridine derivatives as gamma secretase modulators” (Janssen Pharmaceuticals, Inc., priority 2009, dated 2014) can be followed below.

In general, IC50 refers to the concentration at which inhibition is half-maximal. Lower therefore signals higher potency.

Assay [1] deals with Aβ42. As to the kind of experiment: Screening for γ-secretase-modulating activity, Method 1: Aβ42 sandwich ELISA on SKNBE2 cell media. In kind it is cell-based. To be noted: SKNBE2 cells carrying APP 695 wild type. The procedure, abridged: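 SKNBE2 cells expressing wild-type APP695 were treated with compound for 18 h in Ultraculture/1% glutamine. Secreted Aβ42 was quantified by sandwich ELISA (C-terminal capture, biotinylated 3D6, TMB, 450 nm), with WST-1 used as a toxicity check. IC50 was derived from 4-parameter fits of % inhibition or % of untreated control.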
(ELISA stands for enzyme-linked immunosorbent assay.)

Assay [2] concerns Aβ42. As to the kind of experiment: In vivo efficacy Method 1: brain soluble Aβ42 by ELISA. Further details: species or system mouse. The settings on record: Table 4a, single oral dose, overnight fasted animals, sacrificed after 4 h, soluble fraction of brain homogenates. In outline: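 Overnight-fasted rodents or APP transgenic mice given a single oral dose in 20% Captisol or 20% hydroxypropyl β-cyclodextrin and sacrificed after 4 h. Right-hemisphere homogenate high-speed supernatant used: neutralized portion for Aβtotal, Oasis HLB-purified and concentrated eluate for Aβ42, both quantified by ELISA.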

Where [3] appears, read: Homo sapiens, Table 3a, 18 hours, XLfit, top/bottom fixed to 100 and 0, hill slope 1.
The mark [4] stands for this setting: Homo sapiens, Table 3b, non-linear regression of % of control, averaged IC50 values.
The mark [5] stands for this setting: Table 3a, 18 hours, XLfit, top/bottom fixed to 100 and 0, hill slope 1.
The mark [6] stands for this setting: Table 3b, non-linear regression of % of control, averaged IC50 values.

Consider `COc1nc(Nc2cccc3c2nc(-c2ccc(F)cc2)n3C)ccc1-n1cnc(C)c1` [Compound 15], for which the IC50 with Aβ42 [1] (setting [3]) turned out to be 6 nM; with Aβ42 [1] (setting [4]) it was 8 nM. The “Aβ42 (% Ctrl) _Mean” value in the assay with Aβ42 [2] worked out at 31 % Ctrl.
In the case of `Cc1cn(-c2ccc(Nc3cccc4c3nc(-c3ccc(F)cc3)n4C)cc2F)cn1` [Compound 67], the results for the IC50 in the assay with Aβ42 [1] (setting [5]) and in the assay on Aβ42 [1] (setting [6]) were 12 nM and 8 nM, respectively. Moreover, the “Aβ42 (% Ctrl) _Mean” value in the assay on Aβ42 [2] stood at 71 % Ctrl.
The matching figures for `COc1cc(Nc2nccc3c2nc(-c2ccc(F)cc2)n3C)ccc1-n1cnc(C)n1` [Compound 92]: 129 nM, 129 nM and 60 % Ctrl.
With `COc1cc(Nc2cc(C(C)C)nc3c2nc(-c2ccc(F)cc2)n3C)ccc1-n1cnc(C)n1` [Compound 110], the IC50 in the assay with Aβ42 [1] (setting [3]) worked out at 4 nM; with Aβ42 [1] (setting [4]), 18 nM.
`COc1nc(Nc2cc(F)cc3c2nc(-c2ccc(F)cc2)n3C)ccc1-n1cnc(C)c1` [Compound 115] showed an IC50 in the assay with Aβ42 [1] (setting [5]) of 2 nM. Moreover, in the assay with Aβ42 [2], the “Aβ42 (% Ctrl) _Mean” value is 97 % Ctrl.
In the case of `COc1cc(Nc2cccc3c2nc(-c2ccc(F)cc2)n3C)ccc1-n1cnc(C)c1` [Compound 1], the IC50 in the assay with Aβ42 [1] (setting [3]) came out at 22 nM; in the assay on Aβ42 [1] (setting [4]), 21 nM. Further, the “Aβ42 (% Ctrl) _Mean” value with Aβ42 [2] is on record as 57 % Ctrl.
The corresponding values for `COc1cc(Nc2cccc3c2nc(-c2ccc(F)cc2)n3C)ccc1-n1cnc(C)n1` [Compound 4] are 23 nM, 22 nM and 64 % Ctrl.
For the molecule `COc1cc(Nc2nccc3c2nc(-c2ccc(F)cc2)n3C)ccc1-n1cnc(C)c1` [Compound 8], the IC50 in the assay with Aβ42 [1] (setting [3]) and in the assay on Aβ42 [1] (setting [4]) was 22 nM each time. The “Aβ42 (% Ctrl) _Mean” value in the assay on Aβ42 [2] was 46 % Ctrl.
As for `COc1cc(-c2nc3c(Nc4ccc(-n5cnc(C)n5)c(OC)c4)nccc3n2C)ccc1Cl` [Compound 114], the IC50 in the assay with Aβ42 [1] (setting [3]) came to 10 nM; in the assay with Aβ42 [1] (setting [4]), 54 nM.
As to `COc1cc(Nc2cccc3c2nc(-c2ccc(F)cc2)n3C(C)C)ccc1-n1cnc(C)n1.Cl.Cl` [Compound 75], the IC50 with Aβ42 [1] (setting [5]) and in the assay with Aβ42 [1] (setting [6]) was 19 nM each time. Moreover, in the assay on Aβ42 [2], the “Aβ42 (% Ctrl) _Mean” value amounted to 67 % Ctrl.
`Cc1ncn(-c2ccc(Nc3cccc4c3nc(-c3ccc(F)cc3)n4C(C)C)cc2)n1.Cl.Cl` [Compound 73]: the results for the IC50 in the assay with Aβ42 [1] (setting [5]) and in the assay on Aβ42 [1] (setting [6]) were 96 nM and 89 nM, respectively. Moreover, the “Aβ42 (% Ctrl) _Mean” value in the assay with Aβ42 [2] turned out to be 87 % Ctrl.
In the assay on Aβ42 [1] (setting [6]), `COc1cc(Nc2nc(C)cc3c2nc(-c2ccc(F)cc2)n3C)ccc1-n1cnc(C)n1` [Compound 164] gave an IC50 of 32 nM. Also, in the assay with Aβ42 [2], the “Aβ42 (% Ctrl) _Mean” value is reported as 72 % Ctrl.
As for `COc1cc(Nc2nccc3c2nc(-c2ccccc2C(F)(F)F)n3C)ccc1-n1cnc(C)n1` [Compound 130], half-maximal inhibition with Aβ42 [1] (setting [6]) (IC50) required 69 nM. Further, the “Aβ42 (% Ctrl) _Mean” value in the assay on Aβ42 [2] was found to be 75 % Ctrl.
For `COc1cc(Nc2cccc3c2nc(Oc2ccccc2)n3C)ccc1-n1cnc(C)c1` [Compound 61], the IC50 was 63 nM with Aβ42 [1] (setting [5]) and 59 nM in the assay with Aβ42 [1] (setting [6]). The “Aβ42 (% Ctrl) _Mean” value in the assay on Aβ42 [2] came out at 89 % Ctrl.
The matching figures for `Cc1ncn(-c2ccc(Nc3cccc4c3nc(-c3ccc(F)cc3)n4C(C)C)cn2)n1` [Compound 76]: 48 nM, 46 nM and 86 % Ctrl.
The corresponding values for `CCn1c(CC2CC2)nc2c(Nc3ccc(-n4cnc(C)c4)c(OC)c3)cccc21` [Compound 36] are 31 nM, 28 nM and 79 % Ctrl.
